Assay [1] has as its system HeLa-Kyoto. The experiment in a line: WST-8 cell viability assay, HeLa-Kyoto. The assay is classed as cell-based. The following applies: HeLa-Kyoto (cervical cancer), different concentrations, 48 hours, FIG. 3. On the procedure:
Human oral squamous cell carcinoma (OSCC) cell lines, Ca922, OSC20, OECM-1, OC3, CGHNC9, HSC3, plus A549, MDA-MB-231, MCF7, Huh7, HeLa-Kyoto, Detroit 562, H520, H2170, and 293T cells were used in this study. Ca922, CGHNC9, MDA-MB-231, MCF7, Huh7, HeLa-Kyoto, Detroit 562, and 293T cells were all cultured in high-glucose Dulbecco's Modified Eagle Medium (DMEM). OSC20 and HSC3 cells were cultured in Dulbecco's Modified of Eagle's Medium/Ham's F-12 50/50 Mix (1:1). OECM-1, A549, H520, and H2170 cells were grown in RPMI-1640 medium. All culture media were supplemented with 10% fetal bovine serum (FBS) and 1% penicillin-streptomycin. OC3 cells were cultured in 1:1 DMEM/KSFM (keratinocyte serum-free medium) with supplied supplement of Bovine pituitary extract (BPE) and epidermal growth factor (EGF) followed by instruction. All the cells in this study were maintained at 37° C. in humidified atmosphere containing 5% CO2.
WST-8 [2-(2-methoxy-4-nitrophenyl)-3-(4-nitrophenyl)-5-(2,4-disulfophenyl)-2H-tetrazolium, monosodium salt] cell viability assay
Cells were seeded into 96 well plate and incubated at 37° C. overnight. […] The amount of formazan produced is proportional to the number of live cells and is expressed as cellular viability. […] Cell viability was measured at the absorbance of 450/655 nm wavelength by ELISA reader.

For assay [2], the system named is OSC20. Nature of the assay: Time-lapse live cell imaging, OSC20. The assay is classed as cell-based, human. The following applies: OSC20, unbound TMR-GBP removed, imaged at 15 minutes interval for 16 hours, FIG. 4. On the procedure: Time-Lapse Live Cell Imaging
In order to monitor cell morphology and the stability of TMR-GBP, cells were incubated in 35 mm dish or 4 well dish at 37° C. overnight. Replaced the culture medium with CO2-independent medium with supplement of 10% fetal bovine serum (FBS) and 1% penicillin-streptomycin, cells were treated with reagent (TMR, GBP, TMR-GBP) for the time according to the experiment and subjected to time-lapse live cell imaging. Cells were maintained on the microscope stage incubator at 37° C. Multiple-positional time-lapse imaging was performed using an automated Leica DMI6000 inverted microscope equipped with an HCX PL FL 20λ/NA0.4 objective and Andor Luca R EMCCD camera. Images of cells were taken at different interval time and analyzed by MetaMorph software.

In assay [3] the test system is intracellular ROS in Ca922 cells. Nature of the assay: DCFDA cellular ROS detection assay. The assay is classed as cell-based, human. On the procedure: Ca922 cells were seeded in dark, clear bottom 96-well microplate with 25,000 cells per well. Cells were then labeled with 25 μM DCFDA for 45 minutes and 25 μM TMR-GBP for 6 hours. 1% H2O2 (1 hour) and 55 mM TBHP (4 hours) treatments were positive control, mimic ROS activity to oxidize DCFDA to fluorescent DCF. Cells were then analyzed on a fluorescent plate reader. Standard deviations of three independent experiments were indicated as bars.
DCFDA Cellular ROS Detection Assay
Seeded cells at 2.5×10^4 cells/well on a dark, clear bottom 96-well microplate and incubated in complete media with 10% FBS without phenol red. Prepared 1× Buffer by diluting 10× buffer in ddH2O and a working DCFDA solution (25 μM) by adding the appropriate volume of 20 mM DCFDA to 1× Buffer. Washed cells once in 1× Buffer and stained cells with 25 μM DCFDA for 45 minutes at 37° C. Then, washed cells once in 1× Buffer or 1×PBS. TMR-GBP, H2O2 and TBHP could be diluted in complete media with 10% FBS without phenol red. Added 100 μL/well of TMR-GBP, H2O2 (as positive control), TBHP (as positive control) and incubated for desired time period. Cells should not be washed after treatment with the TBHP or other compounds of interest. It should contain non-stained cells to determine background fluorescence. Read signal at Ex/Em: 485/535 nm by fluorescent plate reader

The subject of assay [4] is Poly (ADP-ribose) polymerase (PARP). Nature of the assay: Western blotting of PARP cleavage. The format is cell-based, human. The procedure: Protein expression of Poly (ADP-ribose) polymerase (PARP) were examined in Ca922 cells treated with 25 μM TMR-GBP for 6 hours.
(§1) Protein lysate of Ca922 cells treated with TMR-GBP 25 μM were blotted with antibodies against Caspase-3, Caspase-7, Caspase-9 and Poly (ADP-ribose) polymerase (PARP). Representative blots are shown.
(§2) Western Blotting Analysis
(§3) Cells were harvested by trypsion or scratch and lysed in RIPA buffer (50 mM Tris-HCl, pH 7.4, 150 mM NaCl, 0.1% SDS, 0.5% Sodium deoxycholate, 1% NP-40) supplemented with 1× protease inhibitor cocktail. Sample was incubated on ice for 30 minutes and scraped every 10 minutes. Centrifuge at 13,000 rpm at 4° C. for 15 minutes, then collect supernatant for analysis. Protein concentration was determined by Bradford assay. First, 5× Bradford assay dye reagent was diluted into […], and mixture with RIPA (as standard) or samples. Concentration was obtained by spectrophotometer measurement. Equal volume of 2× laemmli buffer containing β-ME was added into protein lysate for goal concentration. Protein samples were boiled at 100° C. for 15 minutes and resolved by 10% SDS-PAGE gel or 4%-15% gradient gel. […] Washing the membrane three times with 1×PBST for every 5 minutes, protein band was detected by modified ECL (ddH2O, […] Tris pH8.0, 200 μM p-coumaric acid, 1.25 mM luminal, 0.001% H2O2) with ImageQuant LAS 4000 digital imaging system.
(In general: In western blotting, separated proteins are transferred to a membrane and probed.)

Assay [5] concerns Caspase-3. Nature of the assay: Western blotting of Caspase-3. The format is cell-based, human. The following applies: Ca922, 25 μM, treatment time up to 48 hours, FIG. 11B, 11C. The procedure: as §1
Ca922 cells were treated with TMR-GBP and collected at indicated time points. Then blotted for Caspase-3 to observe whether TMR-GBP triggered […] apoptosis pathway.
as §2
as §3, with “concentration.” for “concentration. Protein samples were boiled at 100° C. for 15 minutes and resolved by 10% SDS-PAGE gel or 4%-15% gradient gel.”

Where a SMILES comes first, the peptide text is derived from it. The star is where a group is joined. X1 = CN(C)c1ccc2c(-c3ccc(C(=O)*)cc3C(=O)[O-])c3ccc(=[N+](C)C)cc-3oc2c1

For the compound `CN(C)c1ccc2c(-c3ccc(C(=O)N[C@@H](CC(N)=O)C(=O)N[C@@H](Cc4ccc(O)cc4)C(=O)N[C@@H](CCCNC(=N)N)C(=O)N[C@@H](Cc4c[nH]c5ccccc45)C(=O)N[C@@H](CCCNC(=N)N)C(=O)N[C@@H](CS)C(=O)N[C@@H](CCCCN)C(=O)N[C@@H](CC(N)=O)C(=O)N[C@@H](CCC(N)=O)C(=O)N[C@@H](CC(N)=O)C(=O)O)cc3C(=O)[O-])c3ccc(=[N+](C)C)cc-3oc2c1` [TMR-GBP] (X1-NYRWRCKNQN-OH; N-terminus and C-terminus assumed), the cell viability result in assay [1] is “not markedly affected”. The “cell death by time-lapse microscopy” value in assay [2] is listed as “most cells die in 8 hours”. For the same compound, the “increase of ROS compared with control cells” value in assay [3] (Ca922, 25 μM, 6 hours, DCFDA, after background subtraction, FIG. 9) came to 5 folds. Also, the “ROS production with NAC treatment” value in assay [3] (NAC treatment in the presence of TMR-GBP) was “reversed by NAC treatment”. Moreover, the PARP cleavage result in assay [4] (Ca922, 25 μM, 6 hours, FIG. 11A) is on record as “induced PARP cleavage”. Besides, the “PARP cleavage after calpain inhibitor” value in assay [4] (Ca922, calpain inhibitor pretreated 30 minutes before TMR-GBP, FIG. 11D) is on record as “still induced PARP cleavage”. Also, the “activation of caspase-3” value in assay [5] is “did not activate”.

Source of the values: patent publication US11129867B2, “Method of treating cancer cells” (priority 2017, dated 2021).
